21 compounds from patent publication US20230219965A1 (KSQ Therapeutics, Inc., priority 2020, published 2023) can be followed below.

pIC50: −log10 of the molar value. Read-outs that look alike come from different tables or passages of the source.

A short description of series [1]: Liver microsomal metabolic stability, rat liver microsomes (RLM). Conditions: rat, liver microsomes, t1/2 (min) in RLM, 1 μM compound, 1 mg/mL microsomes, NADPH. (In general: Liver microsomes are vesicles of endoplasmic reticulum, rich in cytochrome P450 enzymes.)
The next series deals with USP1/UAF1 enzyme (Homo sapiens, UniProt O94782). Description: USP1/UAF1 deubiquitination assay (ubiquitin-rhodamine 110 substrate). Format: biochemical. The conditions noted are these: read-out: USP1 IC50 (Ub-Rho). The procedure, abridged: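 0.05 nM USP1/UAF1 was preincubated 10 min with compounds (dose response from 10 μM) in 50 mM Tris-HCl pH 7.8, 0.5 mM EDTA, 0.01% BSA, 1 mM DTT, 0.01% Tween-20. 150 nM ubiquitin-rhodamine 110 started the reaction, read kinetically 30 min at Ex480/Em540; IC50 by four-parameter fit versus no-enzyme and DMSO controls.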
USP1/UAF1 enzyme, sequence (O94782 whole entry): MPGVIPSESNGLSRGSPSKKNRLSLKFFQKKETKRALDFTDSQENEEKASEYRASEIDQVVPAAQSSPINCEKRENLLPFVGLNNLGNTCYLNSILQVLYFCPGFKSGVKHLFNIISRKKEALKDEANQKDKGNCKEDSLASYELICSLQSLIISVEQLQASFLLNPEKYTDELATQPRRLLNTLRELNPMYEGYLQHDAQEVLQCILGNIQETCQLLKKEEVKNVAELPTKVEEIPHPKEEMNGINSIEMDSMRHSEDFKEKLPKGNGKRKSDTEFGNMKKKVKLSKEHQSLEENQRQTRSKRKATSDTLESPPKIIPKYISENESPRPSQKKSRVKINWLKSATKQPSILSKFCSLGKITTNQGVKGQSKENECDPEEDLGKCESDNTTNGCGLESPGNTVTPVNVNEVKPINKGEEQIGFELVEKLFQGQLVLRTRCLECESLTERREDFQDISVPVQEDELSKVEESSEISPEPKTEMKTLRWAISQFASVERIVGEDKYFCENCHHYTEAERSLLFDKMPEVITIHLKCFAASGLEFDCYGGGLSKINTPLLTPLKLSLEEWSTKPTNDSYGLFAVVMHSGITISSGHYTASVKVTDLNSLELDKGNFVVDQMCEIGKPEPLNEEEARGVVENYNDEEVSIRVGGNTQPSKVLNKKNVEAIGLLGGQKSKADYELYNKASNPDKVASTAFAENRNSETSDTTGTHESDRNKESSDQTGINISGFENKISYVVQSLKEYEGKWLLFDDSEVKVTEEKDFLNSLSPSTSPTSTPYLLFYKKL
USP1/UAF1 enzyme, sequence (Q8TAF3 whole entry partner): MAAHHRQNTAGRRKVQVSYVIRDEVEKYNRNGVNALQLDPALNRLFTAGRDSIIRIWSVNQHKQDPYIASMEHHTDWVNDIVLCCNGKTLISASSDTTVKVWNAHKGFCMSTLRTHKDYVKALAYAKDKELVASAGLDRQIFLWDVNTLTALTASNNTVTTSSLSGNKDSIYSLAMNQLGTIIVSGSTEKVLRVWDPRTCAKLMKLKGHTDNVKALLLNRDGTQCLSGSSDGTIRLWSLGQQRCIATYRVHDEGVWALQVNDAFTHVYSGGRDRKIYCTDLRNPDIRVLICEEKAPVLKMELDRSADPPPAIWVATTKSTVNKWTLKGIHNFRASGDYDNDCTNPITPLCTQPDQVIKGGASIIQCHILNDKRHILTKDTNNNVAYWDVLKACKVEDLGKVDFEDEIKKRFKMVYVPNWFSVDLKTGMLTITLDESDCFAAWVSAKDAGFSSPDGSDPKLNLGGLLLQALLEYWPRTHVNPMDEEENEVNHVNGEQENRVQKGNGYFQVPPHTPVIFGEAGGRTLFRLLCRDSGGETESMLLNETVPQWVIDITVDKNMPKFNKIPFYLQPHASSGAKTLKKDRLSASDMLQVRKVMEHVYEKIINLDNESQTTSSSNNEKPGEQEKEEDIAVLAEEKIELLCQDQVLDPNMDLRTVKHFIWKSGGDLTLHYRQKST

A short description of series [2]: Liver microsomal metabolic stability, human liver microsomes (HLM). The conditions noted are these: human, liver microsomes.
The nature of series [3]: ADME solubility determination in PBS at pH 2.0 and pH 7.4. The series is classed as physicochemical. Conditions: phosphate buffered saline, 25 °C, thermodynamic from solid. The procedure:
Certain Compounds of the Disclosure were assessed for ADME solubility at pH 2.0 and pH 7.4.
Stock solutions were prepared by adding each compound to DMSO at a concentration of 10 mM. Samples were prepared by adding 50 μL of each stock solution to separate vials. The vials were loaded onto a 96-well rack and dried. 500 μL of Phosphate Buffered Saline (PBS) pH 7.4 or PBS pH 2.0 were added into each vial. The vials were then shaken at 25° C. and 1,100 rpm for 24 hours.
After 24 hours, the vials were centrifuged at 3220 G and 25° C. for 30 minutes. The supernatant fluid was analyzed by LC-MS/MS against a standard of known concentration. The solubility of each sample was then calculated using the equation below: […]
where DF is the dilution factor.

[4] abbreviates: pH 2, aqueous buffer, PBS pH 2.0, 25° C., read-out: Solubility at pH 2.0.
Where [5] appears, read: pH 7.4, aqueous buffer, PBS pH 7.4, 25° C., read-out: Solubility at pH 7.4.

Take `CCn1cc(C(F)(F)F)nc1-c1ccc(N[C@@H]2CCCn3nc(-c4c(Cl)cnn4[C@H](C)CF)cc32)cc1` (single isomer, unassigned) [Example 323]: the half-life at 1 μM in series [1] and in series [2] was > 25 min throughout. For the same compound, on USP1/UAF1 enzyme, the pIC50 (as a rule, the IC50 on a negative log10 scale, so that one unit is a factor of ten) is > 7.00. The solubility at 24 h in series [3] (setting [4]) and in series [3] (setting [5]) was < 10 µM in each case.

In the case of `CCn1cc(C(F)(F)F)nc1-c1ccc(N[C@@H]2CCCn3nc(-c4c(Cl)cnn4[C@@H](C)CF)cc32)cc1` (single isomer, unassigned) [Example 324], the half-life at 1 μM in series [1] and in series [2] was > 25 min throughout. Besides, the pIC50 at USP1/UAF1 enzyme is > 7.00. Moreover, the solubility at 24 h in series [3] (setting [4]) and in series [3] (setting [5]) was < 10 µM each time.

Turning to `COc1ncnc(C2CC2)c1-c1cc2n(n1)CCC(=O)N2Cc1ccc(-n2nc(C(F)(F)F)cc2C)cc1` [Example 4, 2-(4-cyclopropyl-6-methoxypyrimidin-5-yl)-4-(4-(5-methyl-3-(trifluoromethyl)-1H-pyrazol-1-yl)benzyl)-6,7-dihydropyrazolo[1,5-a]pyrimidin-5(4H)-one], the half-life at 1 μM in series [1] and in series [2] was > 25 min each time. Also, on USP1/UAF1 enzyme, the pIC50 is > 7.00. Also, the solubility at 24 h in series [3] (setting [4]) and in series [3] (setting [5]) was < 10 µM in each case.

In the case of `COc1ncnc(C2CC2)c1-c1cc2n(n1)CCC(=O)N2Cc1ccc(-n2nc(C#N)cc2OC)c(F)c1` [Example 8, (4-((2-(4-cyclopropyl-6-methoxypyrimidin-5-yl)-5-oxo-6,7-dihydropyrazolo[1,5-a]pyrimidin-4(5H)-yl)methyl)-2-fluorophenyl)-5-methoxy-1H-pyrazole-3-carbonitrile], the half-life at 1 μM in series [1] and in series [2] was > 25 min each time. In addition, at USP1/UAF1 enzyme, the negative logarithm of the IC50 (pIC50) was 6.30 to 7.00. For the same compound, the solubility (as a rule, the dissolved amount per volume that the medium holds) at 24 h is ≥ 10 µM in series [3] (setting [4]) and < 10 µM in series [3] (setting [5]).

`COc1ccnc(C(C)C)c1-c1cc2n(n1)CCC(=O)N2Cc1ccc(-c2nc(C(F)(F)F)cn2C)cc1` [Example 13, 2-(2-isopropyl-4-methoxypyridin-3-yl)-4-(4-(1-methyl-4-(trifluoromethyl)-1H-imidazol-2-yl)benzyl)-6,7-dihydropyrazolo[1,5-a]pyrimidin-5(4H)-one]: the half-life at 1 μM in series [1] and in series [2] was < 25 min in each case. The pIC50 on USP1/UAF1 enzyme is 6.30 to 7.00. In addition, the solubility at 24 h in series [3] (setting [4]) and in series [3] (setting [5]) was ≥ 10 µM in each case.

As for `Cn1cc(C(F)(F)F)nc1-c1ccc(CN2C(=O)CCn3nc(-c4c(Cl)cnn4C4CCC4)cc32)cc1F` [Example 19, 2-(4-chloro-1-cyclobutyl-1H-pyrazol-5-yl)-4-(3-fluoro-4-(1-methyl-4-(trifluoromethyl)-1H-imidazol-2-yl)benzyl)-6,7-dihydropyrazolo[1,5-a]pyrimidin-5(4H)-one], the half-life at 1 μM in series [1] and in series [2] was < 25 min in each case. On USP1/UAF1 enzyme, the pIC50 is > 7.00. Also, the solubility at 24 h in series [3] (setting [4]) and in series [3] (setting [5]) was < 10 µM throughout.

As to `Cc1cnn(C(C)C)c1-c1cc2n(n1)CC(C)C(=O)N2Cc1ccc(-c2nc(C(F)(F)F)cn2C)cc1` (stereo not drawn) [Example 31, 2-(1-isopropyl-4-methyl-1H-pyrazol-5-yl)-6-methyl-4-(4-(1-methyl-4-(trifluoromethyl)-1H-imidazol-2-yl)benzyl)-6,7-dihydropyrazolo[1,5-α]pyrimidin-5(4H)-one], the half-life at 1 μM in series [1] and in series [2] was < 25 min each time. The pIC50 on USP1/UAF1 enzyme was 6.30 to 7.00. Besides, the solubility at 24 h in series [3] (setting [4]) was ≥ 10 µM; in series [3] (setting [5]), < 10 µM.

Consider `COc1ncnc(C2CC2)c1-c1cc2n(n1)CC(C)C(=O)N2Cc1ccc(-c2nc(C(F)(F)F)cn2C)cc1` (stereo not shown) [Example 32], for which the half-life at 1 μM in series [1] and in series [2] was > 25 min throughout. Moreover, on USP1/UAF1 enzyme, the pIC50 is > 7.00. For the same compound, the solubility at 24 h in series [3] (setting [4]) was ≥ 10 µM; in series [3] (setting [5]), < 10 µM.

As for `Cc1cnn(C(C)C)c1-c1nn2c(c1Cl)N(Cc1ccc(-c3nc(C(F)(F)F)cn3C)cc1)C(=O)CC2` [Example 34], the half-life at 1 μM in series [1] and in series [2] was < 25 min throughout. Further, the pIC50 on USP1/UAF1 enzyme is 6.30 to 7.00. Moreover, the solubility at 24 h in series [3] (setting [4]) and in series [3] (setting [5]) was < 10 µM in each case.

Take `Cc1cnn(C(C)C)c1-c1cc2n(n1)C(C)CC(=O)N2Cc1ccc(-c2nc(C(F)(F)F)cn2C)cc1` (stereo not drawn) [Example 36, 2-(1-isopropyl-4-methyl-1H-pyrazol-5-yl)-7-methyl-4-(4-(1-methyl-4-(trifluoromethyl)-1H-imidazol-2-yl)benzyl)-6,7-dihydropyrazolo[1,5-α]pyrimidin-5(4H)-one]: the half-life at 1 μM in series [1] and in series [2] was < 25 min each time. Besides, the pIC50 on USP1/UAF1 enzyme is > 7.00. Besides, the solubility at 24 h in series [3] (setting [4]) and in series [3] (setting [5]) was ≥ 10 µM in each case.

As for `Cc1cnn(C(C)C)c1-c1cc2n(n1)CCCN2Cc1ccc(-n2nc(C(F)(F)F)cc2C)cc1` [Example 52, 2-(1-isopropyl-4-methyl-1H-pyrazol-5-yl)-4-(4-(5-methyl-3-(trifluoromethyl)-1H-pyrazol-1-yl)benzyl)-4,5,6,7-tetrahydropyrazolo[1,5-α]pyrimidine], the half-life at 1 μM in series [1] and in series [2] was < 25 min in each case. On USP1/UAF1 enzyme, the pIC50 is > 7.00. Further, the solubility at 24 h in series [3] (setting [4]) and in series [3] (setting [5]) was < 10 µM each time.

For the compound `Cc1cnn(C(C)C)c1-c1cc2n(n1)CCCN2Cc1ccc(-n2nc(C(F)(F)F)cc2C)c(F)c1` [Example 56], the half-life at 1 μM in series [1] and in series [2] was < 25 min throughout. Also, the negative logarithm of the IC50 (pIC50) on USP1/UAF1 enzyme was > 7.00. Also, the solubility at 24 h in series [3] (setting [4]) and in series [3] (setting [5]) was < 10 µM in each case.

Consider `CCn1cc(C(F)(F)F)nc1-c1ccc(CN2CCCn3nc(-c4c(Cl)cnn4C(C)C)cc32)cc1F` [Example 60], for which the half-life at 1 μM in series [1] and in series [2] was < 25 min each time. Besides, the pIC50 on USP1/UAF1 enzyme is > 7.00. Further, the solubility at 24 h in series [3] (setting [4]) and in series [3] (setting [5]) was < 10 µM in each case.

As for `CCn1cc(C(F)(F)F)nc1-c1ccc(CN2C(=O)CCn3nc(-c4c(Cl)cnn4C(C)C)cc32)cc1F` [Example 77, 2-(4-chloro-1-isopropyl-1H-pyrazol-5-yl)-4-(4-(1-ethyl-4-(trifluoromethyl)-1H-imidazol-2-yl)-3-fluorobenzyl)-6,7-dihydropyrazolo[1,5-α]pyrimidin-5(4H)-one], the half-life (as a rule, the time in which the quantity being followed falls by half) at 1 μM in series [1] was < 25 min; in series [2], > 25 min. For the same compound, the pIC50 on USP1/UAF1 enzyme is > 7.00. Also, the solubility at 24 h in series [3] (setting [4]) and in series [3] (setting [5]) was < 10 µM each time.

Turning to `Cc1cn(C)nc1-c1ccc(CN2C(=O)CCn3nc(-c4c(Cl)cnn4C(C)C)cc32)cc1` [Example 93], the half-life at 1 μM in series [1] and in series [2] was < 25 min in each case. Moreover, the pIC50 at USP1/UAF1 enzyme was > 7.00. The solubility at 24 h in series [3] (setting [4]) and in series [3] (setting [5]) was < 10 µM each time.

For the compound `COCc1cc(C(F)(F)F)nn1-c1ccc(CN2C(=O)CCn3nc(-c4c(Cl)cnn4C(C)C)cc32)cc1` [Example 100], the half-life at 1 μM in series [1] and in series [2] was < 25 min throughout. Also, on USP1/UAF1 enzyme, the pIC50 is > 7.00. For the same compound, the solubility at 24 h in series [3] (setting [4]) and in series [3] (setting [5]) was < 10 µM throughout.

In the case of `COc1cc(C#N)nn1-c1ccc(CN2C(=O)CCn3nc(-c4c(Cl)cnn4C(C)C)cc32)cc1` [Example 106], the half-life at 1 μM in series [1] and in series [2] was > 25 min throughout. Moreover, the pIC50 at USP1/UAF1 enzyme is > 7.00. Besides, the solubility at 24 h in series [3] (setting [4]) and in series [3] (setting [5]) was < 10 µM each time.

`CC(C)n1cc([N+](=O)[O-])nc1-c1ccc(CN2C(=O)CCn3nc(-c4c(Cl)cnn4C(C)C)cc32)cc1` [Example 112]: the results for the half-life at 1 μM in series [1] and in series [2] were < 25 min and > 25 min, respectively. For the same compound, the pIC50 on USP1/UAF1 enzyme is > 7.00. The solubility at 24 h in series [3] (setting [4]) and in series [3] (setting [5]) was < 10 µM each time.

Take `COc1cc([C@H](C)N2C(=O)CCn3nc(-c4c(OC)ncnc4C4CC4)cc32)ccc1-c1nc(C(F)(F)F)cn1C(C)C` [Example 128]: the half-life at 1 μM in series [1] and in series [2] was < 25 min each time. Moreover, on USP1/UAF1 enzyme, the pIC50 was 6.30 to 7.00. Further, the solubility at 24 h in series [3] (setting [4]) is ≥ 10 µM; in series [3] (setting [5]) it was < 10 µM.

Consider `CC(C)n1ncc(Cl)c1-c1cc2n(n1)CCC(=O)N2Cc1ccc(-c2cn(C)c(C(F)(F)F)n2)c(F)c1` [Example 130], for which the half-life at 1 μM in series [1] and in series [2] was > 25 min in each case. Also, the pIC50 on USP1/UAF1 enzyme was 6.30 to 7.00. For the same compound, the solubility at 24 h in series [3] (setting [4]) and in series [3] (setting [5]) was < 10 µM throughout.

With `COCCOc1cc(CN2C(=O)CCn3nc(-c4c(Cl)cnn4C(C)C)nc32)ccc1-c1nc(C(F)(F)F)cn1C(C)C` [Example 167], at USP1/UAF1 enzyme, the pIC50 was 6.30 to 7.00. Further, the solubility at 24 h in series [3] (setting [4]) and in series [3] (setting [5]) was < 10 µM throughout.
